Measurements as given in patent US20260262643A1, “HERBICIDAL BENZOXAZINES” (FMC CORPORATION, priority 2022, published 2026).
Read-outs that look alike come from different tables or passages of the source.

Columns and labels:
corn [1] = assay: Test A preemergence; type: in vivo, Zea mays; conditions: Zea mays, pre-emergence, 240 h; for Corn plant response rating (crop injury, 0 = no effect, 100 = complete kill) at 125 g/ha: 125 g ai/ha, visual injury after 10 days, 0 to 100 scale, 0 is no effect, 100 is complete control; for Corn plant response rating (crop injury, 0 = no effect, 100 = complete kill) at 500 g/ha: 500 g ai/ha, 0 to 100 scale (0 no effect, 100 complete control), 10 days
Procedure, shortened: (§1)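 Loam/sand soil; pre-em directed soil spray at planting, post-em spray at 1–2 leaf (2–10 cm). Compound in non-phytotoxic solvent + surfactant. Greenhouse 10 d; visual injury vs untreated, 0 = no effect, 100 = complete control.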

foxtail, giant [2] = assay: Test A preemergence; type: in vivo, Setaria faberi; conditions: Setaria faberi, pre-emergence, 240 h, read-out: Plant response rating, Foxtail, Giant; for pest or weed control at 125 g/ha: 125 g ai/ha, visual injury after 10 days, 0 to 100 scale, 0 is no effect, 100 is complete control; for pest or weed control at 500 g/ha: 500 g ai/ha, 0 to 100 scale (0 no effect, 100 complete control), 10 days
Procedure, shortened: as §1

goosegrass [3] = assay: Test A preemergence; type: in vivo, Eleusine indica; conditions: Eleusine indica, pre-emergence, 240 h, read-out: Plant response rating, Goosegrass; for pest or weed control at 125 g/ha: 125 g ai/ha, visual injury after 10 days, 0 to 100 scale, 0 is no effect, 100 is complete control; for pest or weed control at 500 g/ha: 500 g ai/ha, 0 to 100 scale (0 no effect, 100 complete control), 10 days
Procedure, shortened: as §1

ragweed = assay: Test A preemergence; type: in vivo, Ambrosia artemisiifolia; conditions: Ambrosia artemisiifolia, pre-emergence, 240 h, read-out: Plant response rating, Ragweed; for pest or weed control at 125 g/ha: 125 g ai/ha, visual injury after 10 days, 0 to 100 scale, 0 is no effect, 100 is complete control; for pest or weed control at 500 g/ha: 500 g ai/ha, 0 to 100 scale (0 no effect, 100 complete control), 10 days
Procedure, shortened: as §1

ryegrass, Italian = assay: Test A preemergence; type: in vivo, Lolium multiflorum; conditions: Lolium multiflorum, pre-emergence, 240 h, read-out: Plant response rating, Ryegrass, Italian; for pest or weed control at 125 g/ha: 125 g ai/ha, visual injury after 10 days, 0 to 100 scale, 0 is no effect, 100 is complete control; for pest or weed control at 500 g/ha: 500 g ai/ha, 0 to 100 scale (0 no effect, 100 complete control), 10 days
Procedure, shortened: as §1

wheat = assay: Test A preemergence; type: in vivo, Triticum aestivum; conditions: Triticum aestivum, pre-emergence, 240 h, read-out: Plant response rating, Wheat; for plant injury at 125 g/ha: 125 g ai/ha, visual injury after 10 days, 0 to 100 scale, 0 is no effect, 100 is complete control; for plant injury at 500 g/ha: 500 g ai/ha, 0 to 100 scale (0 no effect, 100 complete control), 10 days
Procedure, shortened: as §1

blackgrass = assay: Test A postemergence; type: in vivo, Alopecurus myosuroides; conditions: Alopecurus myosuroides, post-emergence, 240 h; for pest or weed control at 125 g/ha: 125 g ai/ha; for pest or weed control at 500 g/ha: 500 g ai/ha
Procedure, shortened: as §1

corn [4] = assay: Test A postemergence; type: in vivo, Zea mays; conditions: Zea mays, post-emergence, 240 h; for Corn plant response rating (crop injury, 0 = no effect, 100 = complete kill) at 500 g/ha: 500 g ai/ha
Procedure, shortened: as §1

foxtail, giant [5] = assay: Test A postemergence; type: in vivo, Setaria faberi; conditions: Setaria faberi, post-emergence, 240 h; for pest or weed control at 125 g/ha: 125 g ai/ha; for pest or weed control at 500 g/ha: 500 g ai/ha
Procedure, shortened: as §1

goosegrass [6] = assay: Test A postemergence; type: in vivo, Eleusine indica; conditions: Eleusine indica, post-emergence, 240 h; for pest or weed control at 125 g/ha: 125 g ai/ha; for pest or weed control at 500 g/ha: 500 g ai/ha
Procedure, shortened: as §1

pigweed, palmer = assay: Test A postemergence; type: in vivo, Amaranthus palmeri; conditions: Amaranthus palmeri, post-emergence, 240 h; for pest or weed control at 125 g/ha: 125 g ai/ha; for pest or weed control at 500 g/ha: 500 g ai/ha
Procedure, shortened: as §1

horseweed = assay: Test A postemergence; type: in vivo, Erigeron canadensis; conditions: Erigeron canadensis, post-emergence, 240 h; for pest or weed control at 125 g/ha: 125 g ai/ha; for pest or weed control at 500 g/ha: 500 g ai/ha
Procedure, shortened: as §1

barnyardgrass = assay: Test B flooded paddy test; type: in vivo, Echinochloa crus-galli; conditions: Echinochloa crus-galli, 312 h, 250 g ai/ha, Flood, 13 days, 0 to 100 scale (0 no effect, 100 complete control); read-out: Plant response rating, Barnyardgrass
Procedure, shortened: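 Flooded to 3 cm at treatment time, 2-leaf plants got the test compound applied straight into the paddy water. They then stayed under constant flood in a greenhouse for 13 days. Ratings used a 0 to 100 visual scale.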

[7] = postemergence, 10 days, visual injury, 0 to 100 scale (0 no effect, 100 complete control), read-out: Plant response rating, Blackgrass
[8] = postemergence, 10 days, visual injury, 0 to 100 scale (0 no effect, 100 complete control), read-out: Plant response rating, Foxtail, Giant
[9] = postemergence, 10 days, visual injury, 0 to 100 scale (0 no effect, 100 complete control), read-out: Plant response rating, Goosegrass
[10] = postemergence, 10 days, visual injury, 0 to 100 scale (0 no effect, 100 complete control), read-out: Plant response rating, Pigweed, Palmer
[11] = postemergence, 10 days, visual injury, 0 to 100 scale (0 no effect, 100 complete control), read-out: Plant response rating, Horseweed

SMILES | Corn plant response rating (crop injury, 0 = no effect, 100 = complete kill) at 125 g/ha (corn [1]) [%] | Corn plant response rating (crop injury, 0 = no effect, 100 = complete kill) at 500 g/ha (corn [1]) [%] | pest or weed control at 125 g/ha (foxtail, giant [2]) [%] | pest or weed control at 500 g/ha (foxtail, giant [2]) [%] | pest or weed control at 125 g/ha (goosegrass [3]) [%] | pest or weed control at 500 g/ha (goosegrass [3]) [%] | pest or weed control at 125 g/ha (ragweed) [%] | pest or weed control at 500 g/ha (ragweed) [%] | pest or weed control at 125 g/ha (ryegrass, Italian) [%] | pest or weed control at 500 g/ha (ryegrass, Italian) [%] | plant injury at 125 g/ha (wheat) [%] | plant injury at 500 g/ha (wheat) [%] | pest or weed control at 250 g/ha (barnyardgrass) [%] | other results
COCc1ncn(-c2cccc(C(=O)N3C[C@H](C)Oc4c(C)cccc43)c2)n1 [Compound 101, [(2S)-2,3-Dihydro-2,8-dimethyl-4H-1,4-benzoxazin-4-yl][3-[3-(methoxymethyl)-1H-1,2,4-triazol-1-yl]phenyl]methanone] | 0 | 60 | 90 | 100 | 90 | 100 | 0 | 20 | 80 | 90 | 0 | 50 | 15 | pest or weed control at 125 g/ha (blackgrass; postemergence, 10 days, 0 to 100 scale (0 no effect, 100 complete control), read-out: Blackgrass plant response rating): 70%; pest or weed control at 500 g/ha (blackgrass; [7]): 100%; plant injury at 125 g/ha (corn [4]; 125 g ai/ha, postemergence, 10 days, 0 to 100 scale (0 no effect, 100 complete control), read-out: Corn plant response rating): 70%; Corn plant response rating (crop injury, 0 = no effect, 100 = complete kill) at 500 g/ha (corn [4]; postemergence, 10 days, visual injury, 0 to 100 scale (0 no effect, 100 complete control)): 80%; pest or weed control at 125 g/ha (foxtail, giant [5]; postemergence, 10 days, 0 to 100 scale (0 no effect, 100 complete control), read-out: Foxtail, Giant plant response rating): 90%; pest or weed control at 500 g/ha (foxtail, giant [5]; [8]): 90%; pest or weed control at 125 g/ha (goosegrass [6]; postemergence, 10 days, 0 to 100 scale (0 no effect, 100 complete control), read-out: Goosegrass plant response rating): 50%; pest or weed control at 500 g/ha (goosegrass [6]; [9]): 80%; pest or weed control at 125 g/ha (pigweed, palmer; postemergence, 10 days, 0 to 100 scale (0 no effect, 100 complete control), read-out: Pigweed, Palmer plant response rating): 50%; pest or weed control at 500 g/ha (pigweed, palmer; [10]): 60%; pest or weed control at 125 g/ha (horseweed; postemergence, 10 days, 0 to 100 scale (0 no effect, 100 complete control), read-out: Horseweed plant response rating): 0%; pest or weed control at 500 g/ha (horseweed; [11]): 30%
C#Cc1ncn(-c2cccc(C(=O)N3C[C@H](C)Oc4c(C)cccc43)c2)n1 [Compound 64, [(2S)-2,3-Dihydro-2,8-dimethyl-4H-1,4-benzoxazin-4-yl][3-(3-ethynyl-1H-1,2,4-triazol-1-yl)phenyl]methanone] | 20 | 50 | 90 | 100 | 60 | 100 | 0 | 0 | 90 | 100 | 20 | 40 | 0 | pest or weed control at 125 g/ha (blackgrass; [7]): 40%; pest or weed control at 500 g/ha (blackgrass; Postemergence, 0 to 100 scale, read-out: Plant response rating, Blackgrass): 70%; Corn plant response rating (crop injury, 0 = no effect, 100 = complete kill) at 125 g/ha (corn [4]; 125 g ai/ha, postemergence, 10 days, visual injury, 0 to 100 scale (0 no effect, 100 complete control)): 10%; Corn plant response rating (crop injury, 0 = no effect, 100 = complete kill) at 500 g/ha (corn [4]; Postemergence, 0 to 100 scale): 80%; pest or weed control at 125 g/ha (foxtail, giant [5]; [8]): 20%; pest or weed control at 500 g/ha (foxtail, giant [5]; Postemergence, 0 to 100 scale, read-out: Plant response rating, Foxtail, Giant): 90%; pest or weed control at 125 g/ha (goosegrass [6]; [9]): 10%; pest or weed control at 500 g/ha (goosegrass [6]; Postemergence, 0 to 100 scale, read-out: Plant response rating, Goosegrass): 30%; pest or weed control at 125 g/ha (pigweed, palmer; [10]): 30%; pest or weed control at 500 g/ha (pigweed, palmer; Postemergence, 0 to 100 scale, read-out: Plant response rating, Pigweed, Palmer): 50%; pest or weed control at 125 g/ha (horseweed; [11]): 0%; pest or weed control at 500 g/ha (horseweed; Postemergence, 0 to 100 scale, read-out: Plant response rating, Horseweed): 40%
